How the values were obtained:
Poria placenta = test: Biological screening test (modified EN 113) of TBBA homologues; type: cell-based; settings: 8 weeks exposure; for Protective Effect (retention of the active ingredient in the wood): waterborne
Method: (§1) The following fungi were employed: Coniophora puteana (Brown rot fungus) and Poria placenta (Brown rot fungus). The following preservatives were tested: TBBF (waterborne), TBBE (waterborne), TBBZ (waterborne) and TBBS (waterborne).
(§2) Five concentrations of each preservative were tested: 3.0%, 2.0%, 1.0%, 0.1% and 0.05% (w/w). All wood blocks were of Scots pine sapwood (Pinus sylvestris) with a volume of 1 cm^3 (10 mm×10 mm×10 mm). Five replicates were used for each test specimen type and six virulence control specimens for each fungus and for each preservative were used as follows: • Treated test specimens: 2 (fungi)×5 (preservative concentrations)×1 (preservative)×5 (replicates)=50 test blocks • Untreated test specimens (for exposure alongside […] test blocks): 2 (fungi)×5 (preservative concentrations)×1 (preservative)×5 (replicates)=50 test blocks • Treated check test specimens: 1 (preservative)×5 (concentrations)×5 (replicates)=25 blocks
(§3) For all actives/preservatives in the test: • Virulence control specimens: 2 (fungi)×6 (replicates)=12 test blocks
(§4) After block treatments were completed, all the blocks were sterilized using ionizing radiation according to the conditions set out in European standard EN 113. The incubation period for the test (length of block exposure to the chosen basidiomycete fungi) was 8 weeks.
(§5) Weight changes for particular waterlogged specimens, when these were clearly unrepresentative of a group, were not included in the mean figures presented.

Coniophora puteana = test: as above; type: cell-based; settings: 8 weeks exposure; for Protective Effect (retention of the active ingredient in the wood): waterborne
Method: as §1, §2, §3, §4, §5

[1] = TBBZ waterborne 0.05% w/w, retention 0.4 kg/m^3, some waterlogging
[2] = TBBS waterborne 0.05% w/w, retention 0.4 kg/m^3
[3] = TBBS waterborne 0.1% w/w, retention 0.8 kg/m^3
[4] = TBBF waterborne 0.05% w/w, retention 0.4 kg/m^3
[5] = TBBE waterborne 0.05% w/w, retention 0.4 kg/m^3

Structure (SMILES): Oc1c(Br)cc(C2(c3cc(Br)c(O)c(Br)c3)CCCCC2)cc1Br [TBBZ, 4,4′-Cyclohexylidenebis(2,6-dibromophenol)]
- Corrected mean loss in mass (%) (Poria placenta; [1]): 0.94 (3.19) (W) %
- Corrected mean loss in mass (%) (Poria placenta; TBBZ waterborne 0.1% w/w, retention 0.8 kg/m^3): 33.47 (15.74) %
- Corrected mean loss in mass (%) (Poria placenta; TBBZ waterborne 1.0% w/w, retention 5.9 kg/m^3): No Decay
- Corrected mean loss in mass (%) (Poria placenta; TBBZ waterborne 2.0% w/w, retention 11.6 kg/m^3): No Decay
- Corrected mean loss in mass (%) (Poria placenta; TBBZ waterborne 3.0% w/w, retention 18.6 kg/m^3): No Decay
- Protective Effect (retention of the active ingredient in the wood) (Poria placenta): 0.8-5.9 kg/m^3
- Corrected mean loss in mass (%) (Coniophora puteana; [1]): 33.57 (7.59) (W) %
- Corrected mean loss in mass (%) (Coniophora puteana; TBBZ waterborne 1.0% w/w, retention 6.8 kg/m^3): 14.30 (—) %
- Corrected mean loss in mass (%) (Coniophora puteana; TBBZ waterborne 2.0% w/w, retention 11.8 kg/m^3): No Decay
- Corrected mean loss in mass (%) (Coniophora puteana; TBBZ waterborne 3.0% w/w, retention 17.6 kg/m^3): No Decay
- Protective Effect (retention of the active ingredient in the wood) (Coniophora puteana): 0.7-6.8 kg/m^3

Structure (SMILES): O=S(=O)(c1cc(Br)c(O)c(Br)c1)c1cc(Br)c(O)c(Br)c1 [TBBS, 4,4′-Sulfonyldi(2,6-dibromophenol)]
- Corrected mean loss in mass (%) (Poria placenta; [2]): No Decay
- Corrected mean loss in mass (%) (Poria placenta; [3]): No Decay
- Corrected mean loss in mass (%) (Poria placenta; TBBS waterborne 1.0% w/w, retention 7.9 kg/m^3): No Decay
- Corrected mean loss in mass (%) (Poria placenta; TBBS waterborne 2.0% w/w, retention 15.3 kg/m^3): No Decay
- Corrected mean loss in mass (%) (Poria placenta; TBBS waterborne 3.0% w/w, retention 25.0 kg/m^3): No Decay
- Protective Effect (retention of the active ingredient in the wood) (Poria placenta): 0.8-7.9 kg/m^3
- Corrected mean loss in mass (%) (Coniophora puteana; [2]): 35.02 (6.61) %
- Corrected mean loss in mass (%) (Coniophora puteana; [3]): 35.49 (4.92) %
- Corrected mean loss in mass (%) (Coniophora puteana; TBBS waterborne 1.0% w/w, retention 7.6 kg/m^3): No Decay
- Corrected mean loss in mass (%) (Coniophora puteana; TBBS waterborne 2.0% w/w, retention 16.1 kg/m^3): No Decay
- Corrected mean loss in mass (%) (Coniophora puteana; TBBS waterborne 3.0% w/w, retention 20.2 kg/m^3): No Decay
- Protective Effect (retention of the active ingredient in the wood) (Coniophora puteana): 0.8-7.6 kg/m^3

Structure (SMILES): Oc1c(Br)cc(Cc2cc(Br)c(O)c(Br)c2)cc1Br [TBBF, Bis(4-hydroxy-3,5-dibromophenyl)methane]
- Corrected mean loss in mass (%) (Poria placenta; [4]): 24.20 (9.63) %
- Corrected mean loss in mass (%) (Poria placenta; TBBF waterborne 0.1% w/w, retention 0.8 kg/m^3): 20.90 (0.23) %
- Corrected mean loss in mass (%) (Poria placenta; TBBF waterborne 1.0% w/w, retention 7.7 kg/m^3): No Decay
- Corrected mean loss in mass (%) (Poria placenta; TBBF waterborne 2.0% w/w, retention 15.7 kg/m^3): No Decay
- Corrected mean loss in mass (%) (Poria placenta; TBBF waterborne 3.0% w/w, retention 20.8 kg/m^3): No Decay
- Protective Effect (retention of the active ingredient in the wood) (Poria placenta): 0.8-7.7 kg/m^3
- Corrected mean loss in mass (%) (Coniophora puteana; [4]): 26.87 (7.38) %
- Corrected mean loss in mass (%) (Coniophora puteana; TBBF waterborne 0.1% w/w, retention 0.8 kg/m^3, some waterlogging): 24.49 (2.12) (W) %
- Corrected mean loss in mass (%) (Coniophora puteana; TBBF waterborne 1.0% w/w, retention 7.9 kg/m^3): No Decay
- Corrected mean loss in mass (%) (Coniophora puteana; TBBF waterborne 2.0% w/w, retention 15.1 kg/m^3): No Decay
- Corrected mean loss in mass (%) (Coniophora puteana; TBBF waterborne 3.0% w/w, retention 23.1 kg/m^3): No Decay
- Protective Effect (retention of the active ingredient in the wood) (Coniophora puteana): 0.8-7.9 kg/m^3

Structure (SMILES): CC(c1cc(Br)c(O)c(Br)c1)c1cc(Br)c(O)c(Br)c1 [TBBE, 4,4′-Ethylidenebis(2,6-dibromophenol)]
- Corrected mean loss in mass (%) (Poria placenta; [5]): No Decay (0.89)
- Corrected mean loss in mass (%) (Poria placenta; TBBE waterborne 0.1% w/w, retention 0.8 kg/m^3): 28.67 (14.13) %
- Corrected mean loss in mass (%) (Poria placenta; TBBE waterborne 1.0% w/w, retention 8.3 kg/m^3, some waterlogging): No Decay (W)
- Corrected mean loss in mass (%) (Poria placenta; TBBE waterborne 2.0% w/w, retention 14.4 kg/m^3, some waterlogging): No Decay (W)
- Corrected mean loss in mass (%) (Poria placenta; TBBE waterborne 3.0% w/w, retention 24.6 kg/m^3): No Decay
- Protective Effect (retention of the active ingredient in the wood) (Poria placenta): 0.8-8.3 kg/m^3
- Corrected mean loss in mass (%) (Coniophora puteana; [5]): 22.96 (4.81) %
- Corrected mean loss in mass (%) (Coniophora puteana; TBBE waterborne 0.1% w/w, retention 0.7 kg/m^3): 26.57 (2.99) %
- Corrected mean loss in mass (%) (Coniophora puteana; TBBE waterborne 1.0% w/w, retention 7.9 kg/m^3): No Decay
- Corrected mean loss in mass (%) (Coniophora puteana; TBBE waterborne 2.0% w/w, retention 14.7 kg/m^3): No Decay
- Corrected mean loss in mass (%) (Coniophora puteana; TBBE waterborne 3.0% w/w, retention 24.7 kg/m^3): No Decay
- Protective Effect (retention of the active ingredient in the wood) (Coniophora puteana): 0.7-7.9 kg/m^3
